Measured values as given in US6958318B2, “Recombinant bacterial cells for delivery of PNP to tumor cells” (The UAB Research Foundation, priority 1993, dated 2005).
“And” between values parts separate entries of the source, which are not always exact repeats. Identical values can stand only once. “Also recorded” adds a separate entry of the source. Marks after values point to notes of the source that are not given here.

Experiments:
[1] = tested on: D54 parental tumor cells (D54-wt); assay: Wild-type D54 glioma tumors in nude mice; assay type: in vivo
Procedure: Female athymic nude mice (nu/nu) were implanted sc with 2×10^7 cells of either D54 parental tumor cells (D54-wt) or D54 tumor cells that had been transduced with the E. coli PNP (D54-PNP). After the tumors had grown to approximately 150 mg, they were treated ip with either vehicle or 67 mg/kg of MeP-dR (IP) once a day for 3 days (days 6, 7 and 8 after implantation). The tumor sizes were measured twice a week after treatment.
A confirmation experiment was set up exactly as described above, except that animals were treated with two doses of MeP-dR (45 and 67 mg/kg) (FIGS. 10 and 11). The results of this experiment were similar (Table V). There were 8 of 10 complete regressions in mice bearing the D54-PNP tumors that were treated with 67 mg/kg of MeP-dR. In 4 mice the tumors subsequently returned and grew. There were still 4 of 10 tumor-free survivors 60 days after the treatment had stopped. […] There were 2 of 10 complete regressions and 3 partial responses. […] The delay in the time required to double twice due to treatment with MeP-dR was 5 to 6 days in the non-transduced tumors and greater than 24 days in transduced tumors. In this experiment, the growth rate of the D54-PNP tumors was considerably slower than it was in the first experiment. There was no change in the growth rate of the D54-wt tumors. The reason for the slow growth rate of the D54-PNP tumors in this experiment is not known. […] (In other words, if a tumor was too small to measure, it was not included in the average size). This means that the overall tumor regressions in the D54 PNP group are actually much more pronounced than they appear in FIGS. 8-11.

HEp-2 cells = assay: Toxicity to HEp-2 cells; assay type: cell-based
PNP transduced tumors = assay type: in vivo; details: 67 mg/kg ip, qd×3 d
human PNP = molecular target: T1, human PNP (Homo sapiens, UniProt P00491); assay: Cleavage of purine analog nucleosides by human PNP (HPLC); assay type: biochemical
T1 sequence (P00491 1-289): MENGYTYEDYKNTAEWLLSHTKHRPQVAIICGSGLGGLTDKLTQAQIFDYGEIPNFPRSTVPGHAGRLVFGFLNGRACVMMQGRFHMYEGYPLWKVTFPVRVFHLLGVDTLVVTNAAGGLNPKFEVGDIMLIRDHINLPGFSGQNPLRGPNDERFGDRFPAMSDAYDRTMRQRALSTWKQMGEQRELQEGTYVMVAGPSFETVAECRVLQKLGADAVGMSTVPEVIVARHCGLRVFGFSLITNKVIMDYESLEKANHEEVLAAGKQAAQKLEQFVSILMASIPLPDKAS

16/C-PNP cells = assay: 16/C-PNP tumors in athymic nude mice
E. coli PNP = E. coli PNP (Escherichia coli, UniProt P0ABP8)
16/C breast cancer cells = assay: Bystander killing, mixed wild type and PNP-transduced 16/C cells; assay type: cell-based, murine; details: 20 μg/ml
B16 melanoma cells = assay: Bystander killing, mixed wild type and PNP-transduced B16 cells; assay type: cell-based, murine; details: 20 μg/ml
Lewis Lung tumors = Lewis Lung tumors treated with recombinant E. coli and MeP-dR
D54 glioma tumors = assay: D54 tumors of mixed wild-type and transduced cells (80 to 20); details: in vivo
wild-type 16/C tumors = assay: Wild-type 16/C tumors in B6C3F1 mice; assay type: in vivo
Procedure: (§1) Transduced 16/C cells were implanted in mice by subcutaneous injection of approximately 10^6 cells harvested from the cultures of stably transduced 16/C cells described above. The mice were examined visibly for tumor growth and those with developing tumors were maintained. To prepare mice for use in the in vivo experiments, the tumors were removed from mice with significant tumor growth and cut into 30-60 mg pieces. One 30-60 mg piece of the tumor was subcutaneously implanted into the subaxillary region of each female B6C3F1 mouse. The tumors were allowed to develop and mice with tumors of 100 mm^3 were used.
Six mice (B6C3F1) per group with established wild type 16/C tumors were treated with an aqueous control solution, MeP-dR (100 mg/kg IP qd×3d) or 2-fluoro-arabinofuranosyladenine monophosphate (F-araAMP) (100 mg/kg IP, […]). The wild type tumors grew rapidly in the presence or absence of either of the prodrugs. […] (Table III, Wild-type 16/C treatment).

16/C-PNP tumors = assay: E. coli PNP-transduced 16/C tumors in B6C3F1 mice; assay type: in vivo
Procedure: as §1
Six mice per group with established PNP-transduced 16/C tumors were treated with aqueous control solution, MeP-dR or F-ara AMP, as above. […] (Table III, 16/C-PNP treatment.)

[2] = literature; cited from earlier work
[3] = 67 mg/kg, IP Qd×3d plus recombinant E. coli
[4] = IP for three days, MeP-dR 100, F-araAMP 500 mg/kg/day

Chain of E. coli PNP (P0ABP8 2-239): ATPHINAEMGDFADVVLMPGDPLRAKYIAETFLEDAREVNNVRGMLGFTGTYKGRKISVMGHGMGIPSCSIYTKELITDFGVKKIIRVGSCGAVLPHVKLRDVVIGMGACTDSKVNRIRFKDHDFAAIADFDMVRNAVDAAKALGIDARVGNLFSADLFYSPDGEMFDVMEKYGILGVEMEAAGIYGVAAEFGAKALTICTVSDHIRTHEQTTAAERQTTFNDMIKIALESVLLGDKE

For Cc1ncnc2c1ncn2[C@H]1C[C@H](O)[C@@H](CO)O1 [MeP-dR, 9-(β-D-2-deoxyerythropentofuranosyl)-6-methylpurine], the “Effect on wild-type D54 tumors, in words” value ([1]; 45 or 67 mg/kg) was “little effect; also recorded: no partial of complete remissions; also recorded: did not affect parental D54 tumor cell growth”, the “Days Delay (T-C)” value ([1]; Table IV, 67 mg/kg) was 7 days and the Doubling time ([1]; Table IV, 67 mg/kg) was 21. The “Nonspecific Deaths/Total” value ([1]; Table IV, 67 mg/kg) was 1/6, the “Regressions Partial” value ([1]; Table IV, 67 mg/kg) was 0/6 and the “Tumor-free Survival” value ([1]; Table IV, 67 mg/kg) was 0/6. For the same compound, the “Regressions Complete” value ([1]; Table IV, 67 mg/kg IP once a day for three days) was 0/6, the “Days Delay (T-C)” value ([1]; Table V, 45 mg/kg) was 5 days and the Doubling time ([1]; Table V, 45 mg/kg) was 17. For the same compound, the “Nonspecific Deaths/Total” value ([1]; Table V, 45 mg/kg) was 0/10, the “Regressions Partial” value ([1]; Table V, 45 mg/kg) was 0/10 and the “Tumor-free Survival” value ([1]; Table V, 45 mg/kg) was 0/10. The “Regressions Complete” value ([1]; Table V, 45 mg/kg IP once a day for three days) was 0/10, the “Days Delay (T-C)” value ([1]; Table V, 67 mg/kg) was 6 days and the Doubling time ([1]; Table V, 67 mg/kg) was 18. For the same compound, the “Nonspecific Deaths/Total” value ([1]; Table V, 67 mg/kg) was 0/10, the “Regressions Partial” value ([1]; Table V, 67 mg/kg) was 0/10 and the “Tumor-free Survival” value ([1]; Table V, 67 mg/kg) was 0/10. The “Regressions Complete” value ([1]; Table V, 67 mg/kg IP once a day for three days) was 0/10, the “Fold less toxic than 6-methylpurine (MeP)” value (HEp-2 cells) was 20 fold and the “Effect on very large pre-existing PNP transduced tumors (approximately 1 gram)” value (PNP transduced tumors) was “impressive regression”. For the same compound, the “Percent of substrate cleaved by Human PNP, 100 μM” value (human PNP) was 0(86) Percent and 0%, the “Percent of substrate cleaved by Human PNP, 1 mM” value (human PNP) was 0(47) Percent and 0% and the “Substrate quality for mammalian (human) PNP” value (human PNP) was “poor substrates”. For the same compound, the “Tumor detection, early treatment group” value (16/C-PNP cells; 100 mg/kg IP days 1-4) was “none of the mice had any detectable tumor up to 18 days post engraftment”, the “Deaths, early treatment group” value (16/C-PNP cells; 100 mg/kg IP days 1-4, n=4) was “two more died at day 20” and the “Survival, late treatment group” value (16/C-PNP cells; 100 mg/kg IP days 13, 14, 15) was “All of these animals survived for the complete experiment”. The “Tumor size, late treatment group” value (16/C-PNP cells; 100 mg/kg IP days 13, 14, 15) was “did not increase in size after day 15”, the “Antitumor effect of MeP-dR on PNP-transduced 16/C tumors” value (16/C-PNP cells; days 13-15 or days 1-4) was “substantial antitumor effects” and the Km (E. coli PNP) was 68 µM and 107 µM. The “Toxicity to untransduced 16/C cells” value (16/C breast cancer cells) was “not toxic”, the “Cell proliferation when as few as 2% of cells express E. coli PNP” value (16/C breast cancer cells; mixed culture) was “completely eliminated cell proliferation; also recorded: Complete abrogation of cellular proliferation” and the “Share of cells expressing PNP required for total population cell killing” value (16/C breast cancer cells; LDH release assay) was 1%. The “Toxicity to untransduced B16 cells” value (B16 melanoma cells) was “not toxic”, the “Cell proliferation when as few as 2% of cells express E. coli PNP” value (B16 melanoma cells; mixed culture) was “completely eliminated cell proliferation; also recorded: Complete abrogation of cellular proliferation” and the “Share of cells expressing PNP required for total population cell killing” value (B16 melanoma cells; LDH release assay) was 10%. The “Delay of tumor growth” value (Lewis Lung tumors; 33.5 mg/kg once a day for three days plus recombinant E. coli) was “approximately 42%”, the Host toxicity (Lewis Lung tumors; 33.5 mg/kg plus recombinant E. coli) was “without host toxicity” and the Anti-tumor effect (Lewis Lung tumors; [3]) was “anti-tumor effects were again observed”. For the same compound, the Host toxicity (Lewis Lung tumors; [3]) was “toxic, with several deaths”, the “Activity against tumors of wild-type and transduced cells at 80 to 20” value (D54 glioma tumors) was “less active” and the “Complete Regressions/Total” value (wild-type 16/C tumors; [4]) was 0/6. For the same compound, the “Day delay (Treated-control)” value (wild-type 16/C tumors; [4]) was 2.4 days, the “Nonspecific Deaths/Total” value (wild-type 16/C tumors; [4]) was 0/6 and the “Delay in tumor growth, in words” value (wild-type 16/C tumors; wild type 16/C) was “no statistically significant delay in tumor growth”. For the same compound, the “Complete Regressions/Total” value (16/C-PNP tumors; [4]) was “three of six and 3/6”, the “Day delay (Treated-control)” value (16/C-PNP tumors; [4]) was 5.4 days and the “Nonspecific Deaths/Total” value (16/C-PNP tumors; [4]) was 2/6****. For the same compound, the “Delay in time for three tumor doublings, in words” value (16/C-PNP tumors; p<0.01) was “statistically significant delay” and the “Toxicity of prodrug relative to its purine analog” value [2] was “much less toxic than their respective purine analogs”.
